Results published in US20250129033A1, “METAP2 INHIBITORS AND USES THEREOF” (Yissum Research Development Company of the Hebrew …, priority 2022, published 2025).

Experiments:
MetAP2 = MetAP2 (Homo sapiens, UniProt P50579); experiment: MetAp2 enzymatic assay, L-Met-AMC substrate (Experimental Set-Up 1); type: biochemical
Method: Quantitative MetAP2 activity assay by N-terminal cleavage of substrate 7-amino-4-methyl-courmarin was performed as follows: The activity of MetAP2 was measured using fluorescent peptide substrate L-Met-AMC (Santa Cruz Biotechnology, Inc, sc-207807) as described by Garrabrant et al. (Angiogenesis 7: 91-96, 2004). Briefly, the reaction (100 μl final) was initiated by adding 0.5 μg of MetAP2 or 5 μg HUVEC homogenate to reaction buffer containing 50 mM HEPES (pH 7.4), 100 mM NaCl, 0.1 mM CoCl2, 1 mg/ml PEG6000, and 250 μM L-Met-AMC substrate. The assay was prepared in black flat-bottomed 96-well microtiter plates and fluorescence was measured every 20 s over a period of 60 min at 25° C. using a microplate fluorometer (Bioteck, SynergyHT), with excitation and emission wavelengths set at 360 and 440 nm respectively. As a control the inhibition of the enzyme was obtained by incubating it with TNP-470 for 15 min before the addition of the substrate.
The inhibitory effect of the compounds were tested in MetAp2 enzymatic assay.

[1] = cited from earlier work
[2] = test system: Choroidal Neovascularization (CNV); experiment: Laser-induced CNV in mice; type: in vivo, C57Bl/6J mice; settings: Eylea, in the given dose and time
From the text: Laser-induced CNV was generated by a previously described technique with some modifications. C57Bl/6J mice (6-8 weeks) were anesthetized by intraperitoneal injections of a mixture of 85% ketamine and 15% xylazine. A mixture of 0.5% tropicamide and 0.5% phenylephrine hydrochloride was applied to both eyes to dilate the pupils. Lesions were induced by a diode pumped solid state laser (0.1 s; spot size, 100 μm; power 120 mW) around the optic nerve through a slit lamp delivery system using a Nidek while a hand-held cover slide was used as a contact lens. Only lesions in which a subretinal bubble or focal serous detachment of the retina developed were used for the experiments. For this purpose, 4 burns were performed per eye while leaving a space around the optic disc. Intravitreal injections of the treatments were performed using a PLI-100 Pico-Injector following the laser procedure. After 7 days mice were euthanized and their eyes were removed and fixed in 4% paraformaldehyde for 60 min. The cornea and lens were removed, and the entire retina was carefully dissected from the eyecup Choroid.
Blood vessels were labeled using a 1:200 dilution of isolectin IB4 conjugated with Alexa Fluor 488 or lectin-FITC. The eyecup was flat-mounted in an aqua-mount with the sclera facing down and the choroid facing up. […] The CNV area (presented in μm2) in choroidal flat mount was evaluated using ImageJ software […]

MetAP2, sequence (P50579 whole entry): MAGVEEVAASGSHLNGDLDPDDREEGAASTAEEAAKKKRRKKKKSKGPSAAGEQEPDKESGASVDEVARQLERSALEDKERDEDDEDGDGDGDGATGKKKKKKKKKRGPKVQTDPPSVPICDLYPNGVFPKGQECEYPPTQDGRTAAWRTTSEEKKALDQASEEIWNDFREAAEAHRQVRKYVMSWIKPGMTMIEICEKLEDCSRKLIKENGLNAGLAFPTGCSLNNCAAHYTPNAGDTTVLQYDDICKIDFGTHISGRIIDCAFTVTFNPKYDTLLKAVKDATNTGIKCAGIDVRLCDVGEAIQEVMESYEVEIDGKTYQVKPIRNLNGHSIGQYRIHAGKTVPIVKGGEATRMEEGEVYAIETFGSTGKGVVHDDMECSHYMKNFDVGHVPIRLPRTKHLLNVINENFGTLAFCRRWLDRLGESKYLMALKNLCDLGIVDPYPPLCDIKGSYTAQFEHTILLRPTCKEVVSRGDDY

CO[C@@H]1[C@H](OC(=O)NC(=O)CCl)CC[C@]2(CO2)[C@H]1[C@@]1(C)O[C@@H]1CC=C(C)C [AD-3201]
inhibition of the catalytic activity of MetAp2 (MetAP2; 0.5 microM): 75%
inhibition of the catalytic activity of MetAp2 (MetAP2; 2.5 microM): 97%

CO[C@@H]1[C@H](OC(=O)C23CC4(C)CC(C)(CC(C)(C4)C2)C3)CC[C@]2(CO2)[C@H]1[C@@]1(C)O[C@@H]1CC=C(C)C [AD-3306, Fumagillol-3,5,7-trimethyladamantane-1-carboxylate]
activity in inhibiting the catalytic activity of MetAp2 compared to TNP-470 (MetAP2): almost identical to TNP-470
inhibitory effect in MetAp2 enzymatic assay (ranking among compounds) (MetAP2): most active

CO[C@H]1C(C2(C)O[C@@H]2CC=C(C)C)[C@]2(CC[C@H]1OC(=O)NC(=O)CCl)CO2 (some centres unmarked) [TNP-470, O-chloroacetylcarbamoyl fumagillol]
inhibition at 2.5 µM (MetAP2; 2.5 microM, read-out: inhibition of the catalytic activity of MetAp2): 95%
adverse side-effects ([1]; in high doses): reversible neurotoxicity in some patients
half-life in plasma ([1]; intravenous formulation): minutes

Eylea: the standard of care, as treatment for “wet” AMD [reference compound]
effect on mouse laser induced CNV [2]: 59%
